Data taken from ChEMBL document CHEMBL5370646, “Synthesis and Conformational Analysis of FR901464-Based RNA Splicing Modulators and Their Synergism in Drug-Resistant Cancers” (J Med Chem, 2023).

How the values were obtained:
[1] = test system: DMS-53; test: Synergistic antiproliferative activity against human DMS-53 cells assessed as combination index at 2 nM incubated for 72 hrs in presence of 25 […] by WST-1 assay; type: functional
[2] = Synergistic antiproliferative activity against human Osimertinib-resistant HCC827AR cell assessed as combination index at 2.5 nM incubated for 72 hrs in presence of 4 uM osimertinib by WST-1 assay; type: functional
[3] = Synergistic antiproliferative activity against human Osimertinib-resistant HCC827AR cell assessed as combination index at 2 nM incubated for 72 hrs in presence of 0.50 uM osimertinib by WST-1 assay; type: functional
[4] = test system: DMS-53; test: Synergistic antiproliferative activity against human DMS-53 cells assessed as combination index at 0.5 nM incubated for 72 hrs in presence of […] venetoclax by WST-1 assay; type: functional
[5] = test system: DMS-114; test: Synergistic antiproliferative activity against human DMS-114 cells assessed as combination index at 2 nM incubated for 72 hrs in presence of 2.4 uM venetoclax by WST-1 assay; type: functional
[6] = test system: DMS-53; test: Synergistic antiproliferative activity against human DMS-53 cells assessed as combination index at 0.5 nM incubated for 72 hrs in presence of […] venetoclax by WST-1 assay; type: functional
[7] = test system: DMS-114; test: Synergistic antiproliferative activity against human DMS-114 cells assessed as combination index at 1 nM incubated for 72 hrs in presence of 4.8 uM venetoclax by WST-1 assay; type: functional
[8] = Synergistic antiproliferative activity against human Osimertinib-resistant HCC827AR cell assessed as combination index at 2 nM incubated for 72 hrs in presence of 1 uM osimertinib by WST-1 assay; type: functional
[9] = test system: DMS-53; test: Synergistic antiproliferative activity against human DMS-53 cells assessed as combination index at 1.5 nM incubated for 72 hrs in presence of 50 uM venetoclax by WST-1 assay; type: functional
[10] = Synergistic antiproliferative activity against human Osimertinib-resistant HCC827AR cell assessed as combination index at 2.5 nM incubated for 72 hrs in presence of 2 uM osimertinib by WST-1 assay; type: functional
[11] = test system: DMS-53; test: Synergistic antiproliferative activity against human DMS-53 cells assessed as combination index at 0.5 nM incubated for 72 hrs in presence of 50 uM venetoclax by WST-1 assay; type: functional
[12] = Synergistic antiproliferative activity against human Osimertinib-resistant HCC827AR cell assessed as combination index at 2.5 nM incubated for 72 hrs in presence of 0.50 uM osimertinib by WST-1 assay; type: functional
[13] = Synergistic antiproliferative activity against human Osimertinib-resistant HCC827AR cell assessed as combination index at 2.5 nM incubated for 72 hrs in presence of 0.25 uM osimertinib by WST-1 assay; type: functional
[14] = Metabolic stability in CD1 mouse plasma assessed as half life measured after 48 hrs by LC-MS analysis; type: ADME, cell-free
[15] = test system: SW48; test: Growth inhibition of human SW48 cells assessed as reduction in cell viability incubated for 72 hrs; type: functional
[16] = Synergistic antiproliferative activity against human Osimertinib-resistant HCC827AR cell assessed as combination index at 1.5 nM incubated for 72 hrs in presence of 2 uM osimertinib by WST-1 assay; type: functional
[17] = Synergistic antiproliferative activity against human Osimertinib-resistant HCC827AR cell assessed as combination index at 2 nM incubated for 72 hrs in presence of 4 uM osimertinib by WST-1 assay; type: functional
[18] = test system: DMS-53; test: Synergistic antiproliferative activity against human DMS-53 cells assessed as combination index at 1 nM incubated for 72 hrs in presence of 50 uM venetoclax by WST-1 assay; type: functional
[19] = test system: HCT-116; test: Modulation of RNA splicing in human HCT-116 cells assessed as decrease in MCL-1S expression by Western blot analysis; type: functional, cell-based; conditions: dose 3-100 nM
[20] = test system: DMS-114; test: Synergistic antiproliferative activity against human DMS-114 cells assessed as combination index at 2 nM incubated for 72 hrs in presence of 4.8 uM venetoclax by WST-1 assay; type: functional
[21] = test system: DMS-53; test: Synergistic antiproliferative activity against human DMS-53 cells assessed as combination index at 0.5 nM incubated for 72 hrs in presence of […] venetoclax by WST-1 assay; type: functional
[22] = Synergistic antiproliferative activity against human Osimertinib-resistant HCC827AR cell assessed as combination index at 1 nM incubated for 72 hrs in presence of 1 uM osimertinib by WST-1 assay; type: functional
[23] = test system: DMS-53; test: Synergistic antiproliferative activity against human DMS-53 cells assessed as combination index at 2 nM incubated for 72 hrs in presence of […] venetoclax by WST-1 assay; type: functional
[24] = test system: DMS-114; test: Synergistic antiproliferative activity against human DMS-114 cells assessed as combination index at 3 nM incubated for 72 hrs in presence of 4.8 uM venetoclax by WST-1 assay; type: functional
[25] = test system: DMS-53; test: Synergistic antiproliferative activity against human DMS-53 cells assessed as combination index at 1 nM incubated for 72 hrs in presence of […] venetoclax by WST-1 assay; type: functional
[26] = Synergistic antiproliferative activity against human Osimertinib-resistant HCC827AR cell assessed as combination index at 1 nM incubated for 72 hrs in presence of 2 uM osimertinib by WST-1 assay; type: functional
[27] = test system: DMS-53; test: Synergistic antiproliferative activity against human DMS-53 cells assessed as combination index at 1.5 nM incubated for 72 hrs in presence of 25 uM venetoclax by WST-1 assay; type: functional
[28] = test system: DMS-53; test: Synergistic antiproliferative activity against human DMS-53 cells assessed as combination index at 2 nM incubated for 72 hrs in presence of 200 […] by WST-1 assay; type: functional
[29] = test system: HCT-116; test: Modulation of RNA splicing in human HCT-116 cells assessed as decrease in MCL-1L expression by Western blot analysis; type: functional, cell-based; conditions: dose 3-100 nM
[30] = test system: DMS-53; test: Synergistic antiproliferative activity against human DMS-53 cells assessed as combination index at 1 nM incubated for 72 hrs in presence of […] venetoclax by WST-1 assay; type: functional
[31] = test system: DMS-53; test: Synergistic antiproliferative activity against human DMS-53 cells assessed as combination index at 1 nM incubated for 72 hrs in presence of 25 uM venetoclax by WST-1 assay; type: functional
[32] = test system: DMS-114; test: Synergistic antiproliferative activity against human DMS-114 cells assessed as combination index at 3 nM incubated for 72 hrs in presence of 3.6 uM venetoclax by WST-1 assay; type: functional
[33] = Synergistic antiproliferative activity against human Osimertinib-resistant HCC827AR cell assessed as combination index at 2 nM incubated for 72 hrs in presence of 2 uM osimertinib by WST-1 assay; type: functional
[34] = Synergistic antiproliferative activity against human Osimertinib-resistant HCC827AR cell assessed as combination index at 1 nM incubated for 72 hrs in presence of 0.25 uM osimertinib by WST-1 assay; type: functional
[35] = Synergistic antiproliferative activity against human Osimertinib-resistant HCC827AR cell assessed as combination index at 2 nM incubated for 72 hrs in presence of 0.25 uM osimertinib by WST-1 assay; type: functional
[36] = test system: DMS-53; test: Synergistic antiproliferative activity against human DMS-53 cells assessed as combination index at 1 nM incubated for 72 hrs in presence of […] venetoclax by WST-1 assay; type: functional

half-life [14]: 13 h | GI50 [15]: 2.5 nM
Structure (SMILES): COCO[C@@H](C)/C=C\C(=O)N[C@@H]1C[C@H](C)[C@H](C/C=C(C)/C=C/[C@H]2OC(C)(C)C[C@@]3(CO3)[C@@H]2O)O[C@@H]1C
CI [1]: 0.58 | CI [2]: 0.83 | CI [3]: 1.08 | CI [4]: 1.35 | CI [5]: 0.69 | CI [6]: 1.52 | CI [7]: 1.3 | CI [8]: 1.2 | CI [9]: 0.63 | CI [10]: 0.99 | CI [11]: 1.26 | CI [12]: 0.99 | CI [13]: 0.83 | CI [16]: 1.34 | CI [17]: 0.87 | CI [18]: 0.8 | Activity [19]: Dose-Dependent Effect | CI [20]: 0.66 | CI [21]: 1.6 | CI [22]: 1.48 | CI [23]: 0.42 | CI [24]: 0.21 | CI [25]: 1.26 | CI [26]: 1.37 | CI [27]: 0.7 | CI [28]: 0.4 | Activity [29]: Dose-Dependent Effect | CI [30]: 1.08 | CI [31]: 1.04 | CI [32]: 0.23 | CI [33]: 1.17 | CI [34]: 1.06 | CI [35]: 0.97 | CI [36]: 0.91
